Experimental data as given in EP2246037A2, “Anti-aging and whitening properties of quercetin, 18a-glycyrrhetinic acid, hederagenin and its derivatives” (Korres S.A. Natural Products, priority 2009, dated 2010).

Experiments:
[1] = system: HFL-1 human diploid fibroblasts; assay: β-galactosidase activity staining of continuously treated fibroblasts; format: cell-based
Procedure: The steps, methods and results that were obtained regarding the anti-aging properties of the examined substances are the following: • 1) Study of the lifespan of human diploid fibroblasts in vitro in the presence of the substances. • 1.1. HFL-1 human diploid fibroblasts (HDFs) were used in in vitro conditions (growth at 37°C, 5% CO2 and 95% humidity). • 1.2. The cells were maintained in Dulbecco's modified Eagle's medium (DMEM ®; Invitrogen Life Technologies Inc.) supplemented with 10% (v/v) fetal calf serum, 100 Units/ml penicillin, 100 µg/ml strepromycin, 2 mM glutamine and 1% (v/v) non-essential amino acids (complete medium). • 1.3. The cells were constantly cultured in culture medium supplemented with the substances [final concentration for quercetin (QUER), 18α-glycyrrhetinic acid (18α GA), and hederagenin (HED): 2 µg/ml and for quercetin caprylate (QU-CAP) three concentrations were applied: 0.5, 2 and 5 µg/ml]. Quercetin, 18α-glycyrrhetinic acid and hederagenin were diluted in DMSO (dimethyl sulfoxide) whereas quercetin caprylate was diluted in caprilic/capric triglycerides (CAP). Therefore, the control cultures were incubated in medium supplemented with 0.1% DMSO or 0.1% CAP. • 1.4. The cells were replenished with fresh media supplemented with the substances or the diluents every 24 h and their numbers were examined using a Coulter Z2 ® counter (Coulter Corporation) until they reached senescence (approximately after 13 weeks). The cumulative population doublings performed by each culture were calculated using the following formula: CPD=Σ[PD] where PD=LOG[Nfinal/Ninitial]/LOG[2], where N final represents the number of cells that were measured when each culture reached confluence and N initial represents the number of cells that was initially seeded. • 1.5. Photographs of the cells maintained in cell culture and treated with the various substances for the same time period were taken. • 1.6. […] More specifically, cells that were incubated with quercetin caprylate gave up to 2.8% more population doublings as compared to the population doublings performed by the relative control cultures. Cells that were incubated with the other substances gave up to 2.9% more population doublings as compared to their relative control cultures. • 1.7. […] Cells that were treated with either of the tested substances maintained the young morphology for longer as compared to the control cultures (DMSO-treated and CAP-treated). […] Briefly, 10^5 cells from each culture were seeded in 6-well plates. After 24 h cells were washed with PBS (phosphate buffered saline), fixed in 0.2% glutaraldehyde and 2% formaldehyde for 5 min, washed again with PBS, and finally stained for 24 h at 37 °C in the absence of CO2, in staining solution (150 mM NaCl, 2 mM MgCl2, 5 mM K3Fe(CN)6, 40 mM citric acid, and 12 mM sodium phosphate, pH 6.0) containing 1 mg/ml 5-bromo-4-chloro-3-indolyl-β-D-galactoside. Photographs were then taken. • 1.3. […] HFL-1 HDFs that have senesced in vitro were used (growth at 37°C, 5% CO2 and 95% humidity). More specifically, middle aged HFL-1 HDFs (cpd 59) and terminally senescent HFL-1 HDFs (cpd 65) that had senesced in the absence of any substance were used. • 3.2. The cells were seeded and maintained in complete medium (see 1.2). Culture medium supplemented with the substances [final concentration for quercetin (QUER), 18α-glycyrrhetinic acid (18α GA), and hederagenin (HED): 2 µg/ml and for quercetin caprylate (QU-CAP) three concentrations were applied: 0.5, 2 and 5 µg/ml] or the diluents (0.1% DMSO or 0.1% CAP) were added 24 h later. The cells were replenished with fresh media supplemented with the substances or the diluents every 24 h for 1 week and their numbers were then examined using a Coulter Z2 ® counter (Coulter Corporation). • 3.3. Detection of β-galactosidase activity was performed in these cells as described above and photographs of the cells following β-galactosidase activity assay were taken. • 3.4. […]

[2] = system: tyrosinase; assay: Immunoblot of tyrosinase expression in melanocytes; format: cell-based, Mouse; details: 72 h
Procedure: The steps, methods and results that were obtained regarding the whitening properties of the examined substances are the following: • A) Cellular whitening of melanocytes. • A.1. Mouse melanocytes (B10F16 cell line) were used in in vitro conditions (growth at 37°C, 5% CO2 and 95% humidity). • A.2. The cells were maintained in Dulbecco's modified Eagle's medium (DMEM®; Invitrogen Life Technologies Inc.) supplemented with 10% (v/v) fetal calf serum, 100 Units/ml penicillin, 100 µg/ml strepromycin, 2 mM glutamine and 1% (v/v) non-essential amino acids (complete medium). • A.3. 10^5 cells were seeded in petri dishes and the following day they were fed with medium supplemented with the substances [final concentration for all substances: 5 µg/ml and 10 µg/ml]. Quercetin (QUER), 18α-glycyrrhetinic acid (18α GA) and hederagenin (HED) were diluted in DMSO whereas quercetin caprylate was diluted in caprilic/capric triglycerides (CAP). Therefore, the control cultures were incubated in medium supplemented with 0.1% DMSO or 0.1% CAP. The media were replenished every 24 h and the cells were kept under these conditions constantly for 72 h. Cells were then collected and pelleted and the cell pellet was photographed. • A.4. […] The result was positively correlated to the concentration of quercetin used. • B) Detection of tyrosinase expression. • B.1. Mouse melanocytes were cultured as described in A.1.-A.3. After 72 h of treatment, the cells were collected, lysed and proteins were extracted and subjected to SDS-PAGE followed by immunoblot analysis against tyrosinase. Protein concentrations were determined using the Bradford method with BSA as a standard. • B.2.
Immunoblot analysis of tyrosinase (70-80 kDa) in melanocytes treated with the substances or the relative diluents. Equal protein loading was verified by stripping the membrane and reprobing them with GAPDH (37 kDa) antibody (bottom panel).

Row | Compound | % β-galactosidase positive cells ([1]; 2 µg/ml) [%] | protein levels of tyrosinase ([2]; high concentration (10 µg/ml)) | protein levels of tyrosinase ([2]; 5 µg/ml and 10 µg/ml) | % β-galactosidase positive cells ([1]; 0,5 µg/ml) [%] | % β-galactosidase positive cells ([1]; 5 µg/ml) [%]
1 | CC1(C)[C@@H](O)CC[C@]2(C)[C@H]3C(=O)C=C4[C@H]5C[C@@](C)(C(=O)O)CC[C@]5(C)CC[C@@]4(C)[C@]3(C)CC[C@@H]12 [18α-glycyrrhetinic acid] | 37.7 | – | – | – | –
2 | CC1(C)CC[C@]2(C(=O)O)CC[C@]3(C)C(=CC[C@@H]4[C@@]5(C)CC[C@H](O)[C@@](C)(CO)[C@@H]5CC[C@]43C)[C@@H]2C1 [Hederagenin] | 31.8 | reduced protein levels of tyrosinase | – | – | –
3 | O=c1c(O)c(-c2ccc(O)c(O)c2)oc2cc(O)cc(O)c12 [Quercetin] | 13.5 | – | reduced protein levels of tyrosinase | – | –
4 | quercetin caprylate | 32.3 | – | reduced protein levels of tyrosinase | 36.6 | 47
